Test [1] has as its target T1, EP4 receptor (Homo sapiens, UniProt P35408). Particulars: as taught by Patent Document 1 (WO2016/111347); cited from earlier work.
Test [2] addresses T1, EP4 receptor. The settings on record: as taught by Patent Document 1 (WO2016/111347); cited from earlier work. The source holds these as a separate data set.
Test [3] relates to mouse glioma cell line GL261 orthotopic-graft. As to the kind of experiment: Survival in mouse glioma cell line GL261 orthotopic-graft model. It counts as in vivo, immunocompetent syngeneic C57BL/6 mice. Particulars: Compound A 3 mg/kg oral twice a day. How it is done:
Effects of Combination of Compound A and an Anti-Mouse PD-1 Antibody in Mouse Glioma Cell Line GL261 Orthotopic-Graft Models Using Immunocompetent Syngeneic C57BL/6 Mice
The effect of a combination of Compound A and an anti-mouse PD-1 antibody (4H2, see WO2006/121168) was evaluated in mouse glioma cell line GL261 orthotopic-graft models using immunocompetent syngeneic C57BL/6 mice. GL261 was cultured in a CO2 incubator using an RPMI medium (Mediatech, Inc.) containing 10 vol % of FBS, 100 units/mL of penicillin, and 100 μg/mL of streptomycin. On the day of transplant, GL261 was harvested after removing the culture supernatant, and washing the cells with PBS. The harvested GL261 cells were suspended in PBS to obtain transplant cells. The transplant cells (5×10^4) were then transplanted to the brain of female C57BL/6J mice (The Jackson Laboratory) under anesthesia.
After 5 days from transplant, the mice were divided into 4 groups: a vehicle group, a Compound A single group, an anti-mouse PD-1 antibody single group, and a combination group (Compound A and the anti-mouse PD-1 antibody). Each group included 10 mice. […] The general condition of the mice was observed once a day from the day following the day of transplant of GL261, and scored according to the following table. Thus, the survival rate of the mice was evaluated.

The structures appear in SMILES notation.

T1 sequence (P35408 whole entry): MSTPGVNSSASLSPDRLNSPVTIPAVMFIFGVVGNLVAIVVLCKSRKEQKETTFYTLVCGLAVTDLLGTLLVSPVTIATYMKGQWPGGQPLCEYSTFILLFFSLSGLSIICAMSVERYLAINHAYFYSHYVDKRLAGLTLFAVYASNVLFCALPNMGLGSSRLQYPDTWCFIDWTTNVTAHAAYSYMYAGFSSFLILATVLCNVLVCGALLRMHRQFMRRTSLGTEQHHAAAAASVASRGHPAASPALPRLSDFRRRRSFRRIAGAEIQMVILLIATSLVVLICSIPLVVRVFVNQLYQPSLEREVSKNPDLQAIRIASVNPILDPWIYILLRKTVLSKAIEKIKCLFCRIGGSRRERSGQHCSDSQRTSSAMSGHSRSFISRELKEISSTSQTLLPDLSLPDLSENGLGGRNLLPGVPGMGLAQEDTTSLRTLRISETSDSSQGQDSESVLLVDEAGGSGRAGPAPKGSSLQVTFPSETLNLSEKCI

Turning to `CC(C)NC(=O)c1ccc2c(c1)[C@]1(CCO2)C[C@H]1C(=O)Nc1cc(C#N)ccc1CCCC(=O)O` [Compound A, 4-[4-cyano-2-({[(2′R,4S)-6-(isopropylcarbamoyl)-2,3-dihydrospiro[chromene-4,1′-cyclopropan]-2′-yl]carbonyl}amino)phenyl]butanoic acid], the “binding to EP4 receptor” value on EP4 receptor [1] is reported as “strongly binds”. Besides, at EP4 receptor [2], the “activity at EP4 receptor” value was “antagonistic activity”. In test [3] (GL261 orthotopic graft), the “survival time compared with vehicle administration group” value was “longer than that of the vehicle administration group”. The “day after which all the mice had died” value in test [3] (GL261 transplanted to brain of female C57BL/6J mice, days 5-70 from transplant, 10 mice per group) was found to be 42 days.
